Laboratory results reported in ChEMBL document CHEMBL1201862, “PubChem BioAssay data set” (2004).
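Cells were grown in 96-well plates and exposed to each compound for 48 hours at five concentrations; endpoints were interpolated linearly between bracketing concentrations, or set to the highest concentration if not reached. Abbreviation: GI50, concentration required for 50% inhibition of growth.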 Calls of active or inactive are those of the source. No stated cut-off is given here; in the data, active = GI50 up to about 1.1 µM and inactive = higher.

Key:
Test in all cases: growth of human tumour cells (NCI), 48 h
A498 = tested on: A498
ACHN = tested on: ACHN
BT-549 = tested on: BT-549
DMS-273 = tested on: DMS-273
EKVX = tested on: EKVX
HT-29 = tested on: HT-29
M19-MEL = tested on: M19-MEL
MDA-N = tested on: MDA-N
NCI-H460 = tested on: NCI-H460
OVCAR-3 = tested on: OVCAR-3
OVCAR-8 = tested on: OVCAR-8
SF-268 = tested on: SF-268
SF-539 = tested on: SF-539
SK-MEL-2 = tested on: SK-MEL-2
SK-OV-3 = tested on: SK-OV-3
SN12C = tested on: SN12C
SNB-75 = tested on: SNB-75
SW-620 = tested on: SW-620
UACC-257 = tested on: UACC-257
XF498 = tested on: XF498

Structure (SMILES) | GI50 (A498) | GI50 (ACHN) | GI50 (BT-549) | GI50 (DMS-273) | GI50 (EKVX) | GI50 (HT-29) | GI50 (M19-MEL) | GI50 (MDA-N) | GI50 (NCI-H460) | GI50 (OVCAR-3) | GI50 (OVCAR-8) | GI50 (SF-268) | GI50 (SF-539) | GI50 (SK-MEL-2) | GI50 (SK-OV-3) | GI50 (SN12C) | GI50 (SNB-75) | GI50 (SW-620) | GI50 (UACC-257) | GI50 (XF498)
CC12C=CC(=O)C=C1CCC1C3CCC(O)(C(=O)CO)C3(C)CC(O)C12F (centres undefined) | > 100 µM (inactive) | > 100 µM (inactive) | 95.3 µM (inactive) | > 100 µM (inactive) | 43.5 µM (inactive) | > 100 µM (inactive) | > 100 µM (inactive) | > 100 µM (inactive) | > 100 µM (inactive) | > 100 µM (inactive) | > 100 µM (inactive) | > 100 µM (inactive) | > 100 µM (inactive) | > 100 µM (inactive) | > 4.88 µM (inactive) | > 100 µM (inactive) | > 100 µM (inactive) | > 100 µM (inactive) | > 100 µM (inactive) | > 100 µM (inactive)
CN(C)CCNC(=O)c1ccc(Cl)c2c(Nc3ccc(S(N)(=O)=O)cc3)c3ccccc3nc12 | 2.72 µM (inactive) | 1.67 µM (inactive) | – | 1.55 µM (inactive) | 5.62 µM (inactive) | 1.2 µM (inactive) | 1.63 µM (inactive) | – | 0.706 µM (active) | 2.42 µM (inactive) | 0.65 µM (active) | 1.41 µM (inactive) | 1.21 µM (inactive) | 1.75 µM (inactive) | 2.22 µM (inactive) | 1.12 µM (active) | 1.33 µM (inactive) | 0.173 µM (active) | 3.44 µM (inactive) | 0.165 µM (active)
C=CCC(O)c1cc(OC)ccc1OC (centres undefined) | – | > 100 µM (inactive) | – | > 100 µM (inactive) | > 100 µM (inactive) | > 100 µM (inactive) | > 100 µM (inactive) | – | > 100 µM (inactive) | > 100 µM (inactive) | > 100 µM (inactive) | > 100 µM (inactive) | > 100 µM (inactive) | > 100 µM (inactive) | > 100 µM (inactive) | > 100 µM (inactive) | > 100 µM (inactive) | > 100 µM (inactive) | > 100 µM (inactive) | > 100 µM (inactive)
COc1cc(C(=O)C/C(CCC(=O)Nc2ccc(Cl)cc2Cl)=N/Nc2nnc(C)n2N)ccc1O | 92.7 µM (inactive) | > 100 µM (inactive) | – | > 100 µM (inactive) | 67.1 µM (inactive) | > 100 µM (inactive) | > 100 µM (inactive) | – | > 100 µM (inactive) | > 100 µM (inactive) | > 100 µM (inactive) | > 100 µM (inactive) | > 100 µM (inactive) | > 100 µM (inactive) | > 100 µM (inactive) | > 100 µM (inactive) | > 100 µM (inactive) | > 100 µM (inactive) | > 100 µM (inactive) | > 100 µM (inactive)
C=CC/N=C1\NC(=O)C(CC(=O)Nc2ccc(C)cc2)S1 (centres undefined) | > 100 µM (inactive) | > 100 µM (inactive) | – | > 100 µM (inactive) | > 100 µM (inactive) | > 100 µM (inactive) | > 100 µM (inactive) | – | > 100 µM (inactive) | > 100 µM (inactive) | > 100 µM (inactive) | > 100 µM (inactive) | > 100 µM (inactive) | > 100 µM (inactive) | > 100 µM (inactive) | > 100 µM (inactive) | > 100 µM (inactive) | > 100 µM (inactive) | – | > 100 µM (inactive)
N#C/C(=C1\OC(=N)C(c2ccc(Cl)cc2Cl)C1=O)c1ccc(Cl)cc1Cl (centres undefined) | > 100 µM (inactive) | > 100 µM (inactive) | – | > 100 µM (inactive) | 24.2 µM (inactive) | > 100 µM (inactive) | > 100 µM (inactive) | – | – | > 100 µM (inactive) | > 100 µM (inactive) | > 100 µM (inactive) | > 100 µM (inactive) | > 100 µM (inactive) | > 100 µM (inactive) | > 100 µM (inactive) | 58.9 µM (inactive) | > 100 µM (inactive) | > 100 µM (inactive) | 86.9 µM (inactive)
CCc1ccc(Nc2ccc([N+](=O)[O-])cc2[N+](=O)[O-])cc1 | 23.7 µM (inactive) | > 100 µM (inactive) | – | 96.6 µM (inactive) | 75.9 µM (inactive) | 47.3 µM (inactive) | > 100 µM (inactive) | – | 69.2 µM (inactive) | 44.4 µM (inactive) | 97.7 µM (inactive) | – | > 100 µM (inactive) | > 100 µM (inactive) | > 100 µM (inactive) | – | 39.7 µM (inactive) | > 100 µM (inactive) | 67.8 µM (inactive) | > 100 µM (inactive)
COc1cc2c([C@@H](OC(=O)c3ccccc3)c3ccc4c(c3)OCO4)nccc2c(OC)c1OC | 32.2 µM (inactive) | – | – | 32.4 µM (inactive) | 43.6 µM (inactive) | 67.3 µM (inactive) | 42.2 µM (inactive) | – | 54 µM (inactive) | 25.6 µM (inactive) | 49.5 µM (inactive) | 48.8 µM (inactive) | 82.2 µM (inactive) | – | > 100 µM (inactive) | 38.5 µM (inactive) | 11.8 µM (inactive) | > 100 µM (inactive) | 38.4 µM (inactive) | 13.6 µM (inactive)
COc1ccc(C2=NN(c3ccccc3)C[N+](c3ccc(C)cc3)=N2)cc1 | 63 µM (inactive) | 50.2 µM (inactive) | – | > 10 µM (inactive) | 44.3 µM (inactive) | 73.1 µM (inactive) | 29.9 µM (inactive) | – | 65.5 µM (inactive) | 23 µM (inactive) | 78.2 µM (inactive) | 70.6 µM (inactive) | – | – | – | 66.5 µM (inactive) | – | 25.6 µM (inactive) | > 100 µM (inactive) | 25.3 µM (inactive)
CN(C)P(=O)(/C(N)=N/Nc1ccc([N+](=O)[O-])cc1)N(C)C | 0.558 µM (active) | > 100 µM (inactive) | – | > 100 µM (inactive) | > 100 µM (inactive) | – | > 100 µM (inactive) | – | > 100 µM (inactive) | > 100 µM (inactive) | > 100 µM (inactive) | > 100 µM (inactive) | > 100 µM (inactive) | > 100 µM (inactive) | – | > 100 µM (inactive) | > 100 µM (inactive) | > 100 µM (inactive) | > 100 µM (inactive) | > 100 µM (inactive)
CNC(SC)=C1C(=O)OC(C)(C)OC1=O | > 100 µM (inactive) | > 100 µM (inactive) | – | 0.499 µM (active) | > 100 µM (inactive) | > 100 µM (inactive) | > 100 µM (inactive) | – | 50 µM (inactive) | > 100 µM (inactive) | > 100 µM (inactive) | > 100 µM (inactive) | – | 37.1 µM (inactive) | > 100 µM (inactive) | > 100 µM (inactive) | > 100 µM (inactive) | 20 µM (inactive) | > 100 µM (inactive) | > 100 µM (inactive)
c1cncc(C2c3[nH]c4ccccc4c3CCN2CCN2CCCCC2)c1 (centres undefined) | 70.8 µM (inactive) | > 100 µM (inactive) | – | > 100 µM (inactive) | > 100 µM (inactive) | > 100 µM (inactive) | > 100 µM (inactive) | – | > 100 µM (inactive) | > 100 µM (inactive) | > 100 µM (inactive) | > 100 µM (inactive) | > 100 µM (inactive) | – | > 100 µM (inactive) | > 100 µM (inactive) | 43.6 µM (inactive) | > 100 µM (inactive) | 32.9 µM (inactive) | > 100 µM (inactive)
COC1C(OC(=O)c2ccc(C)[nH]2)C(O)C(Oc2ccc3c(O)c(NC(=O)c4c[nH]c(C(=O)Nc5c(O)c6ccc(OC7OC(C)(C)C(OC)C(OC(=O)c8ccc(C)[nH]8)C7O)c(C)c6oc5=O)c4C)c(=O)oc3c2C)OC1(C)C (centres undefined) | 1.76 µM (inactive) | 2.53 µM (inactive) | – | 2.86 µM (inactive) | 3.82 µM (inactive) | 3.9 µM (inactive) | 1.64 µM (inactive) | – | 1.88 µM (inactive) | 3.26 µM (inactive) | 2.81 µM (inactive) | 0.67 µM (active) | – | 2.28 µM (inactive) | 2.15 µM (inactive) | 1.54 µM (inactive) | 0.708 µM (active) | 4.34 µM (inactive) | 3.95 µM (inactive) | 2.18 µM (inactive)
CCOC(=O)C(C(=O)OCC)S(C)(=O)=O | > 100 µM (inactive) | > 100 µM (inactive) | – | > 100 µM (inactive) | > 100 µM (inactive) | > 100 µM (inactive) | > 100 µM (inactive) | – | > 100 µM (inactive) | > 100 µM (inactive) | > 100 µM (inactive) | – | > 100 µM (inactive) | > 100 µM (inactive) | > 100 µM (inactive) | > 100 µM (inactive) | – | > 100 µM (inactive) | > 100 µM (inactive) | > 100 µM (inactive)
COC(=O)c1cc2cc(OC)c(OC)cc2cc(C(=O)OC)c1=O | > 100 µM (inactive) | > 100 µM (inactive) | – | > 100 µM (inactive) | > 100 µM (inactive) | > 100 µM (inactive) | > 100 µM (inactive) | – | > 100 µM (inactive) | > 100 µM (inactive) | > 100 µM (inactive) | > 100 µM (inactive) | > 100 µM (inactive) | > 100 µM (inactive) | > 100 µM (inactive) | > 100 µM (inactive) | > 100 µM (inactive) | 35.3 µM (inactive) | > 100 µM (inactive) | > 100 µM (inactive)
